For series [1] the following is noted: Balb/c mice, FITC fluorescence (485/535 nm) in blood samples. Here is the method: At indicated time points, the mice were euthanized and the blood was taken from the heart. Sodium heparin was added to the blood samples at a concentration of 15 IU/ml. The fluorescence intensity of FITC‐LTX‐315 in the serum was measured using Tecan Infinite F200 Fluorescence Microplate Reader (Tecan, Seestrasse, Männedorf, Switzerland) at an excitation and emission wavelength of 485 and 535 nm, respectively.

For series [2] the following is noted: due to high serum protein binding ability; cited from earlier work. The source says: Recently, several cationic antimicrobial peptides (CAPs), such as LTX‐315, have been extensively investigated as novel anticancer agents due to their ability to kill tumor cells and create a highly proinflammatory status of the TME, mainly via causing the destabilization of tumor cell plasma and mitochondrial membrane.[12] Subsequently, the CAPs trigger the immunogenic cell death (ICD) in tumor cells via Bax/Bak‐1 and caspase apoptotic pathways, which is along with the exposure or release of tumor antigens, danger‐associated molecular pattern (DAMP) molecules such as calreticulin, ATP and high ...

Where a SMILES comes first, the peptide text is derived from it. [ ]: non-standard residue; d: D form. The star is where a group is joined. FITC = O=C1OC2(c3ccc(O)cc3Oc3cc(O)ccc32)c2ccc(NC(=S)*)cc21; Dip = N[C@H](C(=O)O)C(c1ccccc1)c1ccccc1

On to `NCCCC[C@H](NC(=O)[C@@H](NC(=O)[C@H](Cc1c[nH]c2ccccc12)NC(=O)[C@H](CCCCN)NC(=O)[C@H](CCCCN)NC(=O)[C@H](Cc1c[nH]c2ccccc12)NC(=O)[C@H](Cc1c[nH]c2ccccc12)NC(=O)[C@H](CCCCN)NC(=O)[C@H](CCCCN)NC(=S)Nc1ccc2c(c1)C(=O)OC21c2ccc(O)cc2Oc2cc(O)ccc21)C(c1ccccc1)c1ccccc1)C(N)=O` [FITC-LTX] ({FITC}-KKWWKKW[Dip]K-NH2), for which the “elimination after i.v. injection” value in series [1] was “eliminated within few minutes”. For `NCCCC[C@H](NC(=O)[C@@H](NC(=O)[C@H](Cc1c[nH]c2ccccc12)NC(=O)[C@H](CCCCN)NC(=O)[C@H](CCCCN)NC(=O)[C@H](Cc1c[nH]c2ccccc12)NC(=O)[C@H](Cc1c[nH]c2ccccc12)NC(=O)[C@H](CCCCN)NC(=O)[C@@H](N)CCCCN)C(c1ccccc1)c1ccccc1)C(N)=O` [LTX-315] (H-KKWWKKW[Dip]K-NH2), in series [2], the “fate upon systemic administration” value is “rapidly degraded into nontoxic metabolites”.

Values taken from PMC10487304, “Shaping the “hot” immunogenic tumor microenvironment by nanoparticles co‐delivering oncolytic peptide and TGF‐β1 siRNA for boosting checkpoint blockade therapy” (Bioengineering & Translational Medicine, 2022).
